What was measured:
[1] = target: T1, vasopressin V2 receptors (Rattus norvegicus, UniProt Q00788); assay: Vasopressin V2 agonist effects in normal conscious water-loaded rats; type: in vivo; conditions: vs control; oral dose of 10 mg/Kg; urine collected for four hours; Sprague-Dawley (CD) rats
T1 construct: Male or female normotensive Sprague-Dawley rats; tissue Charles River Laboratories, Inc; host or cells: whole animal (Sprague-Dawley rat; kidney collecting ducts per the background)
Description: Vasopressin V2 Agonist Effects of Test Compounds in Normal Conscious Water-Loaded Rats
Male or female normotensive Sprague-Dawley rats (Charles River Laboratories, Inc., Kingston, N.Y.) of 350-500 g body weight were supplied with standard rodent diet (Purina Rodent Lab. Chow 5001) and water ad libitum. On the day of test, rats were placed individually into metabolic cages equipped with devices to separate the feces from the urine and containers for collection of urine. A test compound or a reference agent was given at an oral dose of 10 mg/Kg in a volume of 10 mL/Kg. The vehicle used was 2.5% preboiled corn starch in 20% dimethylsulfoxide (DMSO). Thirty minutes after dosing the test compound, rats were gavaged with water at 30 mL/Kg into the stomach using a feeding needle. During the test, rats were not provided with water or food. Urine was collected for four hours after dosing of the test compound. At the end of four hours, urine volume was measured. Urinary osmolality was determined using a Fiske One-Ten Osmometer (Fiske Associates, Norwood, Mass., 02062) or an Advanced CRYOMATIC Osmometer, Model 3C2 (Advanced Instruments, Norwood, Mass.). Determinations of Na^+, K^+ and Cl^− ion were carried out using ion specific electrodes in a Beckman SYNCHRON EL-ISE Electrolyte System analyzer. The urinary osmolality should increase proportionally. In the screening test, two rats were used for each compound. If the difference in the urine volume of the two rats was greater than 50%, a third rat was used.

T1 sequence (Q00788 whole entry): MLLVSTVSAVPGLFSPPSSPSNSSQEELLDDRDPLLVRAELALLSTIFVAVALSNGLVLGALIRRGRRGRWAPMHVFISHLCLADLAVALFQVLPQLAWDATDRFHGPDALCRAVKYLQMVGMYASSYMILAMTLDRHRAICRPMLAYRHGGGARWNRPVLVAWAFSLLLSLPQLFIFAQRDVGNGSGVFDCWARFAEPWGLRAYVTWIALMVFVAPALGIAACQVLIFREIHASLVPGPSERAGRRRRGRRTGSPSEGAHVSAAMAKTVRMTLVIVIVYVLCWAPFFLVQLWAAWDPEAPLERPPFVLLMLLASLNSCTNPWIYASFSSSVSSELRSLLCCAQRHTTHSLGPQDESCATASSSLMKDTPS

SMILES	Urinary Osmolality (% increase) [1] [% increase]	Urine Volume (% decrease) [1] [% decrease]	melting point [°C]
CN1c2ccccc2N(C(=O)c2ccc(C3CCCCC3)cc2)Cc2cccnc21 [Example 3, (4-Cyclohexyl-phenyl)-(5,11-dihydro-11-methyl-5H-pyrido[2,3-b][1,5]benzodiazepin-6-yl)-methanone]	129	51	
O=C(c1ccc(C2CCCCC2)cc1)N1Cc2cccn2Cc2ccccc21 [Example 1, 10-(4-Cyclohexyl-benzoyl)-10,11-dihydro-5H-pyrrolo[2,1-c][1,4]benzodiazepine]	232	61	127 to 129
O=C(c1ccc(C2CCCCC2)cc1)N1Cc2cccn2Cc2ncccc21 [Example 7, (4-Cyclohexyl-phenyl)-(4H,10H-3a,5,9-triaza-benzo[f]azulen-9-yl)-methanone]			150 to 152
CCN1c2ccccc2N(C(=O)c2ccc(C3CCCCC3)cc2)Cc2cccnc21 [Example 4, (4-Cyclohexyl-phenyl)-(5,11-dihydro-11-ethyl-5H-pyrido[2,3-b][1,5]benzodiazepin-6-yl)-methanone]	132	64	
O=C(c1ccc(C2CCCCC2)cc1)N1CCCCc2sccc21 [Example 8, (4-Cyclohexyl-phenyl)-(5,6,7,8-tetrahydro-thieno[3,2-b]azepin-4-yl)-methanone]			145 to 148
CN1c2ccccc2CN(C(=O)c2ccc(C3CCCCC3)cc2)c2ccccc21 [Example 6, (4-Cyclohexyl-phenyl)-(5,11-dihydro-5-methyl-10H-dibenzo[b,e][1,4]diazepin-10-yl)-methanone]			111 to 112
O=C(c1ccc(C2CCCCC2)cc1)N1Cc2ccccc2Nc2ccccc21 [Example 5, (4-Cyclohexyl-phenyl)-(5,11-dihydro-10H-dibenzo[b,e][1,4]diazepin-10-yl)methanone]			175 to 176
O=C(c1ccc(C2CCCCC2)cc1)N1Cc2cccnc2Nc2ccccc21 [Example 2, (4-Cyclohexyl-phenyl)-(5,11-dihydro-pyrido[2,3-b][1,5]benzodiazepin-6-yl)-methanone]	51	48	230 to 233
